Assay results published in ChEMBL document CHEMBL4476871, “SULFAMIDE AND SULFAMATE INHIBITORS OF hHint1” (2018).
Active and inactive are the calls of the source. The rule behind the calls is not given here.

Columns and labels:
[1] = target: Adenosine 5'-monophosphoramidase HINT1 (Homo sapiens) (UniProt P49773); experiment: Inhibition of human N-terminal His6-tagged Hint1 expressed in Escherichia coli Rosetta 2 pLysS cells by fluorescence assay
Mus musculus [2] = experiment: Analgesic activity in ICR mouse model of spared nerve injury assessed as reduction in mechanical hypersensitivity at 1 nmol administered intrathecally prior to spared nerve injury by Von Frey test; type: functional, organism-based
Mus musculus [3] = experiment: Analgesic activity in ICR mouse model of spared nerve injury assessed as reduction in mechanical hypersensitivity at 1 nmol administered intrathecally 7 days post spared nerve injury by Von Frey test; type: functional, organism-based
Mus musculus [4] = experiment: Analgesic activity in ICR mouse model of spared nerve injury assessed as reduction in mechanical hypersensitivity at 1 nmol administered intrathecally 7 days post spared nerve injury measured after 4 hrs by Von Frey test; type: functional, organism-based

Sequence of Adenosine 5'-monophosphoramidase HINT1 (Homo sapiens) (P49773 whole entry): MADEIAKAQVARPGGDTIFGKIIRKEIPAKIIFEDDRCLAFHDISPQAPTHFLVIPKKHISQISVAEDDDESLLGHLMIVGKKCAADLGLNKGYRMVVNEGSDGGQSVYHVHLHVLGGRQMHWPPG

SMILES	inhibition [1]	Activity (Mus musculus [2])	Activity (Mus musculus [3])	Activity (Mus musculus [4])
Nc1nc2c(ncn2[C@@H]2O[C@H](COC(=O)NCCc3c[nH]c4ccccc34)[C@@H](O)[C@H]2O)c(=O)[nH]1	Dose-dependent effect	Active	Active	
O=C(CCc1c[nH]c2ccccc12)NS(=O)(=O)OC[C@H]1O[C@@H](n2cnc3c2ncn2ccnc32)[C@@H](O)C1O (stereo partly specified)		inactive		Active
Nc1ncnc2c1ncn2[C@@H]1O[C@H](CNS(=O)(=O)NC(=O)CCCC[C@@H]2SC[C@@H]3NC(=O)N[C@@H]32)[C@@H](O)[C@H]1O	Dose-dependent effect			
